Reference: US9802903B2, “Process for preparing antiviral compound” (AbbVie Inc., priority 2010, dated 2017)

Experiment: Ames test (mutagenic potential)
Format: cell-based
Details: genotoxic testing of process compounds
Description: As discussed above, compound I (including salts thereof) is useful as a drug for treating HCV in humans. Thus, it is important that it be so prepared that it is safe for administration to humans. As one skilled in the art would understand, one aspect of drug safety is the minimization of the amount of genotoxic impurities that are associated with the production of a given drug, and, can therefore also be present in the drug product. A couple of well established tests are used to measure the genotoxicity of chemical compounds. One such test is the computer-based Derek analysis, and the other—the Ames test, which is a biological assay that assesses the mutagenic potential of chemical compounds.

In the case of `Nc1ccc(I)cc1` [Compound 1a, 4-iodoaniline], the Ames test result is reported as “negative”.

For `CS(=O)(=O)Nc1ccc(I)cc1` [Compound 2a, N-(4-iodophenyl)methanesulfonamide], the Ames test result was “negative”.
